Assay results reported in patent US20050106292A1, “High moisture, shelf-stable acidulated food products” (priority 2003, published 2005).

Experiment: Contact of acidic solution with human skin
Type: in vivo
Settings: solution with a pH of less than 0.5

O=S(=O)(O)O [sulfuric acid]
irritation or injury of the hand put into the solution: an irritation would occur
